Assay results published in US20250230193A1, “CYCLIC COMPOUND HAVING SELECTIVE KRAS INHIBITORY EFFECT ON HRAS AND NRAS” (CHUGAI SEIYAKU KABUSHIKI KAISHA, priority 2022, published 2025).

Columns and labels:
[1] = biological target: GDP-bound HRAS wild-type protein (Homo sapiens, UniProt P01112); assay: Binding to HRAS by surface plasmon resonance (SPR), Single Cycle Kinetics; conditions: KD ratio HRAS/KRAS
[2] = biological target: GDP-bound NRAS wild-type protein (Homo sapiens, UniProt P01111); assay: Binding to NRAS by surface plasmon resonance (SPR), Single Cycle Kinetics; conditions: KD ratio NRAS/KRAS
Chain of GDP-bound NRAS wild-type protein (P01111 whole entry): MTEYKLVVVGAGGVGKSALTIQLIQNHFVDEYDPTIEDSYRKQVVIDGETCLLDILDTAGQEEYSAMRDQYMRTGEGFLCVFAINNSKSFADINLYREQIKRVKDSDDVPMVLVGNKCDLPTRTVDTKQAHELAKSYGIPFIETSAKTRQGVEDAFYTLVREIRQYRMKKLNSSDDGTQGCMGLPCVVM

[3] = SPR, GDP-bound wild-type proteins

Chain of GDP-bound HRAS wild-type protein (P01112 whole entry): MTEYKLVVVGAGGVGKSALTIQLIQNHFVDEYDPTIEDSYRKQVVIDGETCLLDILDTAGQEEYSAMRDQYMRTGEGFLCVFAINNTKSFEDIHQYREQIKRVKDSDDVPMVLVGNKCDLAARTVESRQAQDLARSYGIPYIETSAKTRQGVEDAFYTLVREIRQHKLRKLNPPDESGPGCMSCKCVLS

Compound	HRAS/KRAS (ratio of KD value with respect to GDP-bound HRAS wild-type protein to KD value with respect to KRAS) ([1]; class symbols)	NRAS/KRAS (ratio of KD value with respect to GDP-bound NRAS wild-type protein to KD value with respect to KRAS) ([2]; class symbols)	HRAS/KRAS (ratio of KD value with respect to GDP-bound HRAS wild-type protein to KD value with respect to KRAS) [1, 3]	NRAS/KRAS (ratio of KD value with respect to GDP-bound NRAS wild-type protein to KD value with respect to KRAS) [2, 3]
CCO[C@@H]1C[C@H]2C(=O)NC3(CCC3)C(=O)N(C)[C@@H](C3CCCC3)C(=O)N(C)[C@H](C(=O)N3CCCCC3)CC(=O)N(C)[C@H]3CCC/C=C/c4ccc(cc4)C[C@@H](C(=O)N(C)CC(=O)N[C@@H](CCc4ccc(Cl)c(Cl)c4)C(=O)N2C1)N1CC/C=C\C[C@@H](C1=O)N(C)C(=O)CN(C1CC1)C(=O)[C@H]([C@@H](C)CC)NC3=O [PP2958]	A (a compound having 10 or more and less than 20 is denoted as A)	AA (a compound having 20 or more is denoted as AA)	–	–
CCC(CC)[C@H]1C(=O)N(C)[C@H](C(=O)N(C)C)CC(=O)N(C)[C@@H](COC)C(=O)N[C@@H]([C@@H](C)CC)C(=O)N(C)CC(=O)N(C)[C@H]2C/C=C\CCN(C2=O)[C@@H](Cc2ccc(C)cc2)C(=O)N(C)CC(=O)N[C@@H](CCc2cc(F)c(C(F)(F)F)c(F)c2)C(=O)N2CCCCC[C@H]2C(=O)NC2(CC(C)(C)C2)C(=O)N1C [PP2960]	A (a compound having 10 or more and less than 20 is denoted as A)	A (a compound having 10 or more and less than 20 is denoted as A)	–	–
CCC(CC)[C@H]1C(=O)N(C)[C@H](C(=O)N(C)C)CC(=O)N(C)[C@@H](COC)C(=O)N[C@@H]([C@@H](C)CC)C(=O)N(C)CC(=O)N(C)[C@H]2C/C=C\CCN(C2=O)[C@@H](Cc2ccc(C(F)(F)F)cc2)C(=O)N(C)CC(=O)N[C@@H](CCc2cc(F)c(C(F)(F)F)c(F)c2)C(=O)N2CC3(CC3)C[C@H]2C(=O)NC2(CC(C)(C)C2)C(=O)N1C [PP2961]	A (a compound having 10 or more and less than 20 is denoted as A)	AA (a compound having 20 or more is denoted as AA)	–	–
CCC[C@H]1C(=O)N[C@@H]([C@@H](C)CC)C(=O)N(C)CC(=O)N(C)[C@H]2C/C=C\CCN(C2=O)[C@@H](Cc2ccc(C)cc2)C(=O)N(C)CC(=O)N[C@@H](CCc2ccc(Cl)c(Cl)c2)C(=O)N2CCCCC[C@H]2C(=O)NC2(CC(C)(C)C2)C(=O)N(C)[C@@H](C(CC)CC)C(=O)N(C)[C@H](C(=O)N(C)C)CC(=O)N1C [PP2962]	A (a compound having 10 or more and less than 20 is denoted as A)	AA (a compound having 20 or more is denoted as AA)	–	–
CCC(CC)[C@H]1C(=O)N(C)[C@H](C(=O)N(C)C)CC(=O)N(C)[C@@H](COC)C(=O)N[C@@H]([C@@H](C)CC)C(=O)N(C)CC(=O)N(C)[C@H]2C/C=C\CCN(C2=O)[C@@H](Cc2ccc(C)cc2)C(=O)N(C)CC(=O)N[C@@H](CCc2cc(F)c(C(F)(F)F)c(F)c2)C(=O)N2CC3(CC3)C[C@H]2C(=O)NC2(CC(C)(C)C2)C(=O)N1C [PP2963]	A (a compound having 10 or more and less than 20 is denoted as A)	AA (a compound having 20 or more is denoted as AA)	–	–
CCC[C@H]1C(=O)N[C@@H]([C@@H](C)CC)C(=O)N(C)CC(=O)N(C)[C@H]2C/C=C\CCN(C2=O)[C@@H](Cc2ccc(C(F)(F)F)cc2)C(=O)N(C)CC(=O)N[C@@H](CCc2ccc(C(F)(F)F)c(Cl)c2)C(=O)N2CCCCC[C@H]2C(=O)NC2(CC(C)(C)C2)C(=O)N(C)[C@@H](C(CC)CC)C(=O)N(C)[C@H](C(=O)N(C)C)CC(=O)N1C [PP2964]	A (a compound having 10 or more and less than 20 is denoted as A)	AA (a compound having 20 or more is denoted as AA)	–	–
CCC(CC)[C@H]1C(=O)N(C)[C@H](C(=O)N(C)C)CC(=O)N(C)[C@@H](COC)C(=O)N[C@@H]([C@@H](C)CC)C(=O)N(C)CC(=O)N(C)[C@H]2C/C=C\CCN(C2=O)[C@@H](Cc2ccc(C(F)(F)F)cc2)C(=O)N(C)CC(=O)N[C@@H](CCc2ccc(C(F)(F)F)c(Cl)c2)C(=O)N2CC3(CC3)C[C@H]2C(=O)NC2(CC(C)(C)C2)C(=O)N1C [PP2965]	A (a compound having 10 or more and less than 20 is denoted as A)	AA (a compound having 20 or more is denoted as AA)	–	–
CCC(CC)[C@H]1C(=O)N(C)[C@H](C(=O)N(C)C)CC(=O)N(C)[C@@H](COC)C(=O)N[C@@H]([C@@H](C)CC)C(=O)N(C)CC(=O)N(C)[C@H]2C/C=C\CCN(C2=O)[C@@H](Cc2ccc(C)cc2)C(=O)N(C)CC(=O)N[C@@H](CCc2ccc(C(F)(F)F)c(Cl)c2)C(=O)N2CCCCC[C@H]2C(=O)NC2(CC(C)(C)C2)C(=O)N1C [PP2966]	A (a compound having 10 or more and less than 20 is denoted as A)	A (a compound having 10 or more and less than 20 is denoted as A)	–	–
CCC(CC)[C@H]1C(=O)N(C)[C@H](C(=O)N(C)C)CC(=O)N(C)[C@@H](COC)C(=O)N[C@@H]([C@@H](C)CC)C(=O)N(C)CC(=O)N(C)[C@H]2C/C=C\CCN(C2=O)[C@@H](Cc2ccc(C)cc2)C(=O)N(C)CC(=O)N[C@@H](CCc2ccc(C(F)(F)F)c(Cl)c2)C(=O)N2CC3(CC3)C[C@H]2C(=O)NC2(CC(C)(C)C2)C(=O)N1C [PP2967]	A (a compound having 10 or more and less than 20 is denoted as A)	AA (a compound having 20 or more is denoted as AA)	–	–
CCC[C@H]1C(=O)N[C@@H]([C@@H](C)CC)C(=O)N(C)CC(=O)N(C)[C@H]2C/C=C\CCN(C2=O)[C@@H](Cc2ccc(C(F)(F)F)cc2)C(=O)N(C)CC(=O)N[C@@H](CCc2ccc(C(F)(F)F)c(OC)c2)C(=O)N2CCCCC[C@H]2C(=O)NC2(CC(C)(C)C2)C(=O)N(C)[C@@H](C(CC)CC)C(=O)N(C)[C@H](C(=O)N(C)C)CC(=O)N1C [PP2968]	A (a compound having 10 or more and less than 20 is denoted as A)	AA (a compound having 20 or more is denoted as AA)	–	–
CCC[C@H]1C(=O)N[C@@H]([C@@H](C)CC)C(=O)N(C)CC(=O)N(C)[C@H]2C/C=C\CCN(C2=O)[C@@H](Cc2ccc(C(F)(F)F)cc2)C(=O)N(C)CC(=O)N[C@@H](CCc2ccc(C(F)(F)F)c(Cl)c2)C(=O)N2C[C@H](OCC)C[C@H]2C(=O)NC2(CC(C)(C)C2)C(=O)N(C)[C@@H](CC(C)(C)C)C(=O)N(C)[C@H](C(=O)N(C)C)CC(=O)N1C [PP2969]	A (a compound having 10 or more and less than 20 is denoted as A)	AA (a compound having 20 or more is denoted as AA)	–	–
CCC(CC)[C@H]1C(=O)N(C)[C@H](C(=O)N(C)C)CC(=O)N(C)[C@@H](COC)C(=O)N[C@@H]([C@@H](C)CC)C(=O)N(C)CC(=O)N(C)[C@H]2C/C=C\CCN(C2=O)[C@@H](Cc2ccc(C)cc2)C(=O)N(C)CC(=O)N[C@@H](CCc2ccc(C(F)(F)F)c(OC)c2)C(=O)N2CCCCC[C@H]2C(=O)NC2(CC(C)(C)C2)C(=O)N1C [PP2970]	A (a compound having 10 or more and less than 20 is denoted as A)	A (a compound having 10 or more and less than 20 is denoted as A)	–	–
CCC[C@H]1C(=O)N[C@@H](C2CCCC2)C(=O)N(C)CC(=O)N(C)[C@H]2C/C=C\CCN(C2=O)[C@@H](Cc2ccc(C(F)(F)F)cc2)C(=O)N(C)CC(=O)N[C@@H](CCc2ccc(C(F)(F)F)c(Cl)c2)C(=O)N2C[C@H](OCC)C[C@H]2C(=O)NC2(CC(C)(C)C2)C(=O)N(C)[C@@H](CC(C)(C)C)C(=O)N(C)[C@H](C(=O)N(C)C)CC(=O)N1C [PP2971]	–	–	A (a compound having 10 or more and less than 20 is denoted as A)	A (a compound having 10 or more and less than 20 is denoted as A)
CCC[C@H]1C(=O)N[C@@H]([C@@H](C)CC)C(=O)N(C)CC(=O)N(C)[C@H]2C/C=C\CCN(C2=O)[C@@H](Cc2ccc(C(F)(F)F)cc2)C(=O)N(C)CC(=O)N[C@@H](CCc2ccc(C(F)(F)F)c(Cl)c2)C(=O)N2C[C@H](OCC)C[C@H]2C(=O)NC2(CC(C)(C)C2)C(=O)N(C)[C@@H]([C@@H](C)CC)C(=O)N(C)[C@H](C(=O)N(C)C)CC(=O)N1C [PP2973]	–	–	A (a compound having 10 or more and less than 20 is denoted as A)	A (a compound having 10 or more and less than 20 is denoted as A)
CCC(CC)[C@H]1C(=O)N(C)[C@H](C(=O)N(C)C)CC(=O)N(C)[C@@H](COC)C(=O)N[C@@H]([C@@H](C)CC)C(=O)N(C)CC(=O)N(C)[C@H]2C/C=C\CCN(C2=O)[C@@H](Cc2ccc(C)cc2)C(=O)N(C)CC(=O)N[C@@H](CCc2ccc(Cl)c(Cl)c2)C(=O)N2CCCCC[C@H]2C(=O)NC2(CC(C)(C)C2)C(=O)N1C [PP2974]	–	–	A (a compound having 10 or more and less than 20 is denoted as A)	A (a compound having 10 or more and less than 20 is denoted as A)
CCC[C@H]1C(=O)N[C@@H]([C@@H](C)CC)C(=O)N(C)CC(=O)N(C)[C@H]2C/C=C\CCN(C2=O)[C@@H](Cc2ccc(C(F)(F)F)cc2)C(=O)N(C)CC(=O)N[C@@H](CCc2ccc(C(F)(F)F)c(Cl)c2)C(=O)N2C[C@H](OCC)C[C@H]2C(=O)NC2(CC(C)(C)C2)C(=O)N(C)[C@@H](CC(F)(F)F)C(=O)N(C)[C@H](C(=O)N(C)C)CC(=O)N1C [PP2975]	–	–	A (a compound having 10 or more and less than 20 is denoted as A)	A (a compound having 10 or more and less than 20 is denoted as A)
